The results in this text go back to article PMC12136037, “Type II kinase inhibitors that target Parkinson’s disease–associated LRRK2” (Science Advances, 2025).

Molecules are shown by their SMILES.

Holding throughout (test): DSF 100 kinase selectivity screen;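 further: compound tested at 20 µM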
Holding throughout (type): binding

Experiment [1] addresses T1, ~100 representative kinases (Homo sapiens, UniProt O14733).
T1 construct: Recombinant protein kinase domains with a concentration of 2 μM
T1 sequence (O14733 1-419): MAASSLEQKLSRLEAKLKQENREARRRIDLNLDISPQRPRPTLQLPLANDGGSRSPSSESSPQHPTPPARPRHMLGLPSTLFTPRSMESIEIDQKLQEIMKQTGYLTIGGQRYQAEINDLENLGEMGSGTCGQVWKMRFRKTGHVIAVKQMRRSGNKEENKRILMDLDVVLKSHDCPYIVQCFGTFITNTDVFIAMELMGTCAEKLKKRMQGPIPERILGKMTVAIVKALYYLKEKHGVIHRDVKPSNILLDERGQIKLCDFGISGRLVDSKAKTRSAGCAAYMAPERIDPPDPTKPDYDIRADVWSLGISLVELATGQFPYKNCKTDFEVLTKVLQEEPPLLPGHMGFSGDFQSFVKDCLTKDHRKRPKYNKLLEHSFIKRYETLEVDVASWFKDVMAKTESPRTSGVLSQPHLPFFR
The conditions noted are these: protein MAP2K7; average of three replicates. The method in brief:
(§1)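 Each kinase domain, at 2 μM, is mixed with 20 μM test compound and SYPRO Orange in Hepes (20 mM, pH 7.5) with 500 mM NaCl. Temperature is then raised at 3°C/min and fluorescence-monitored unfolding yields the melting temperature change, ΔTm in degrees Celsius.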

For experiment [2], the target named is T2, ~100 representative kinases (Homo sapiens, UniProt O14965).
T2 construct: Recombinant protein kinase domains with a concentration of 2 μM
T2 sequence (O14965 1-403): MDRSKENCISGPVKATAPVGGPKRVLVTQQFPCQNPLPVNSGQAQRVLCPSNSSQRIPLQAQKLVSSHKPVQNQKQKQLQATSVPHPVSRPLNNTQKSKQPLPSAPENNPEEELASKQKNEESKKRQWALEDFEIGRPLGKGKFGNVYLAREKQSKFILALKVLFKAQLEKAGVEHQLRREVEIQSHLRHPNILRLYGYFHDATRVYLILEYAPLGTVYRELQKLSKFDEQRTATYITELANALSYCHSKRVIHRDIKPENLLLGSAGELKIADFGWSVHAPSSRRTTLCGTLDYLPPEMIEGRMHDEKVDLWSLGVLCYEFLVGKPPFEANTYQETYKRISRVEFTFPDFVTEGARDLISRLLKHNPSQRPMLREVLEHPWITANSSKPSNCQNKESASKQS
Particulars: Protein STK6; DSF; average of three replicates. The method in brief:
as §1

Experiment [3] has as its target T3, ~100 representative kinases (Homo sapiens, UniProt P11309).
T3 construct: Recombinant protein kinase domains with a concentration of 2 μM
Particulars: protein PIM1; average of three replicates. The procedure, abridged:
as §1

Experiment [4] addresses T4, ~100 representative kinases (Homo sapiens, UniProt P12931).
T4 construct: Recombinant protein kinase domains with a concentration of 2 μM
Particulars: Protein SRC; DSF; average of three replicates. The procedure, abridged:
as §1

In experiment [5] the target is T5, ~100 representative kinases (Homo sapiens, UniProt P22607).
T5 construct: Recombinant protein kinase domains with a concentration of 2 μM
Particulars: protein FGFR3; average of three replicates. The procedure, abridged: as §1

Experiment [6] concerns the target T6, ~100 representative kinases (Homo sapiens, UniProt P45983).
T6 construct: Recombinant protein kinase domains with a concentration of 2 μM
The conditions noted are these: protein MAPK8; average of three replicates. The method in brief: as §1

The target of experiment [7] is T7, ~100 representative kinases (Homo sapiens, UniProt P45984).
T7 construct: Recombinant protein kinase domains with a concentration of 2 μM
Particulars: protein MAPK9; average of three replicates. The procedure, abridged: as §1

The target in experiment [8] is T8, ~100 representative kinases (Homo sapiens, UniProt P49137).
T8 construct: Recombinant protein kinase domains with a concentration of 2 μM
Particulars: protein MAPKAPK2; average of three replicates. The method in brief:
as §1

Experiment [9] deals with T9, ~100 representative kinases (Homo sapiens, UniProt Q00532).
T9 construct: Recombinant protein kinase domains with a concentration of 2 μM
Particulars: Protein CDKL1; average of three replicates. The procedure, abridged:
as §1

Experiment [10] concerns the target T10, ~100 representative kinases (Homo sapiens, UniProt Q02750).
T10 construct: Recombinant protein kinase domains with a concentration of 2 μM
Particulars: protein MAP2K1; average of three replicates. The procedure, abridged:
as §1

Experiment [11] concerns the target T11, ~100 representative kinases (Homo sapiens, UniProt Q13188).
T11 construct: Recombinant protein kinase domains with a concentration of 2 μM
T11 sequence (Q13188 1-491): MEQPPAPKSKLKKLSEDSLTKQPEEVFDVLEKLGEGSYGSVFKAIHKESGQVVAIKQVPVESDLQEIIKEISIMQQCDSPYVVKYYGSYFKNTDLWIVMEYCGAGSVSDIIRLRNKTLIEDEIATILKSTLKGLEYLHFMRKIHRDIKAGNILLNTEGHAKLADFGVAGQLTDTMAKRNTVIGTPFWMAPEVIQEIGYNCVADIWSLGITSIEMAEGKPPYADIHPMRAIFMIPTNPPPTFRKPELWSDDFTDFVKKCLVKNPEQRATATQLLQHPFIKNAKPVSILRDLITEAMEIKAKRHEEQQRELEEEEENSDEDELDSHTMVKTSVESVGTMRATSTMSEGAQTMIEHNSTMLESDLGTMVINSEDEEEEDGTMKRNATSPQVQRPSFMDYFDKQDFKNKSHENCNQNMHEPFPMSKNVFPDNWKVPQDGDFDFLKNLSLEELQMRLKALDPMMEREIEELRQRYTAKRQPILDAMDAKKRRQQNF
Particulars: Protein STK3; DSF; average of three replicates. The procedure, abridged:
as §1

Experiment [12] deals with T12, ~100 representative kinases (Homo sapiens, UniProt Q96GD4).
T12 construct: Recombinant protein kinase domains with a concentration of 2 μM
Particulars: Protein AURKB; average of three replicates. The method in brief:
as §1

The target in experiment [13] is T13, ~100 representative kinases (Homo sapiens, UniProt Q96RR4).
T13 construct: Recombinant protein kinase domains with a concentration of 2 μM
Particulars: Protein CAMKK2; average of three replicates. The method in brief:
as §1

The target of experiment [14] is T14, ~100 representative kinases (Homo sapiens, UniProt Q9H2X6).
T14 construct: Recombinant protein kinase domains with a concentration of 2 μM
The conditions noted are these: protein HIPK2; average of three replicates. The method in brief:
as §1

Experiment [15] addresses T15, ~100 representative kinases (Homo sapiens, UniProt Q9Y243).
T15 construct: Recombinant protein kinase domains with a concentration of 2 μM
The conditions noted are these: Protein AKT3; average of three replicates. The method in brief:
as §1

T10 sequence (Q02750 whole entry, the tested form may be a part): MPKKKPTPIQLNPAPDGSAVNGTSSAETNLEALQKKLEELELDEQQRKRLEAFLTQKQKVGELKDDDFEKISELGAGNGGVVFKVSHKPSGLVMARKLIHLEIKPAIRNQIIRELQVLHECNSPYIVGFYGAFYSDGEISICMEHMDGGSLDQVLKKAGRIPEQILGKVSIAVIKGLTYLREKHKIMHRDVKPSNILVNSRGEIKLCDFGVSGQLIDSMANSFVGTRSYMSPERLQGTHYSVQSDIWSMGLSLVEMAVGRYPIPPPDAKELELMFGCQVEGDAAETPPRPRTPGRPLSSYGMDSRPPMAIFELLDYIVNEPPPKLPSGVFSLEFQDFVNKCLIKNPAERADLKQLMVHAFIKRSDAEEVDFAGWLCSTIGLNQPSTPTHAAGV
T12 sequence (Q96GD4 whole entry, the tested form may be a part): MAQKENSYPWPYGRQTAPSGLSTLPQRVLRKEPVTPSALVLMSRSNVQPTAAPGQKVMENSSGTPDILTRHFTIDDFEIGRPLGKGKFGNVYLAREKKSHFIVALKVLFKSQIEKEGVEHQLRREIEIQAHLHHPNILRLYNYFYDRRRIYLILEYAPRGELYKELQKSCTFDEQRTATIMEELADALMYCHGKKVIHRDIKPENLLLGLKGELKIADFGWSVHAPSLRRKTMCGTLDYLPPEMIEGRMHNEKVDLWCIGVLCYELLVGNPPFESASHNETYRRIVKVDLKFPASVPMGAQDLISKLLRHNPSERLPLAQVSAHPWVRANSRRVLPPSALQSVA
T7 sequence (P45984 whole entry, the tested form may be a part): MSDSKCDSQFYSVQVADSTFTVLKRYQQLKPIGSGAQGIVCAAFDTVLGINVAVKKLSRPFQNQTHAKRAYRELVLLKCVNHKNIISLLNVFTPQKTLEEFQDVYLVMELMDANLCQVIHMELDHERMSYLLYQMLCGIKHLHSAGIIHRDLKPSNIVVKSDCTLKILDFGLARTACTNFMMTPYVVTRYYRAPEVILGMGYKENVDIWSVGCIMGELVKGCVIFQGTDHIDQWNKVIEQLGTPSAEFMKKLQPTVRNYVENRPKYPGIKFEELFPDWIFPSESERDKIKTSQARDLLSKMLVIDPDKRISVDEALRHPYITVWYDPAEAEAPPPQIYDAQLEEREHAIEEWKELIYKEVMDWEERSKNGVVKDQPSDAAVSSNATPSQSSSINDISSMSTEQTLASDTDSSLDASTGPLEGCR
T4 sequence (P12931 whole entry, the tested form may be a part): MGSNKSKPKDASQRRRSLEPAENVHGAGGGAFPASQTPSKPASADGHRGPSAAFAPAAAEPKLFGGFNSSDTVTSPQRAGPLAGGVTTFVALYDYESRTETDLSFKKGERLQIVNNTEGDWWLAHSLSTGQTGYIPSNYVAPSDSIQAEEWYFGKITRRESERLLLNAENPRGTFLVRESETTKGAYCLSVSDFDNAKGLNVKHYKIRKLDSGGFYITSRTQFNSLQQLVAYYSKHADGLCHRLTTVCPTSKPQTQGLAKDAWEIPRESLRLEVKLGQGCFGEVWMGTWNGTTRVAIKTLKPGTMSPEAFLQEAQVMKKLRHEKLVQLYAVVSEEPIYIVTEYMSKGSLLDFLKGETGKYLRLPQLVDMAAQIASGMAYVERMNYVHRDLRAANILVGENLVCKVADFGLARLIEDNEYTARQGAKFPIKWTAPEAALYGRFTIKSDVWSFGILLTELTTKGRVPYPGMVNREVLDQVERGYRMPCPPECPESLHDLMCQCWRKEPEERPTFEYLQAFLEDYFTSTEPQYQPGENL
T8 sequence (P49137 whole entry, the tested form may be a part): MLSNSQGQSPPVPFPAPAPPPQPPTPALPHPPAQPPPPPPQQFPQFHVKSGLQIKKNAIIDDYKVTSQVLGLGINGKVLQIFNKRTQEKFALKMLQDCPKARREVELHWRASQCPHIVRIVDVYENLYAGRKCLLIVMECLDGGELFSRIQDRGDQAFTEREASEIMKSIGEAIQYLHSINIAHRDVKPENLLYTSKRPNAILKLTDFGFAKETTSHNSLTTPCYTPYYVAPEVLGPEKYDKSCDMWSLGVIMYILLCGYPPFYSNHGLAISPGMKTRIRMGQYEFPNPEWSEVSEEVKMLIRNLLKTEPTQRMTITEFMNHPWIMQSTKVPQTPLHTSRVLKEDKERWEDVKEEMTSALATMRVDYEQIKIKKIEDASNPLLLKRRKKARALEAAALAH
T3 sequence (P11309 whole entry, the tested form may be a part): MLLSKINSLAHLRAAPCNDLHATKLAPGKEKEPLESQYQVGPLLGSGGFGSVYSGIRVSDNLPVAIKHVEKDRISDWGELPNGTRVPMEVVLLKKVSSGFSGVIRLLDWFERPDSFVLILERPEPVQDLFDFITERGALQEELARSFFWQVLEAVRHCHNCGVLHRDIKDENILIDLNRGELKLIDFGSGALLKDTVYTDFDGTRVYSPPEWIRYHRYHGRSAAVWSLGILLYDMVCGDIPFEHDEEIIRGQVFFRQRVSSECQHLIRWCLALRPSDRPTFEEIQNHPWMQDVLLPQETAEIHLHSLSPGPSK
T14 sequence (Q9H2X6 whole entry, the tested form may be a part): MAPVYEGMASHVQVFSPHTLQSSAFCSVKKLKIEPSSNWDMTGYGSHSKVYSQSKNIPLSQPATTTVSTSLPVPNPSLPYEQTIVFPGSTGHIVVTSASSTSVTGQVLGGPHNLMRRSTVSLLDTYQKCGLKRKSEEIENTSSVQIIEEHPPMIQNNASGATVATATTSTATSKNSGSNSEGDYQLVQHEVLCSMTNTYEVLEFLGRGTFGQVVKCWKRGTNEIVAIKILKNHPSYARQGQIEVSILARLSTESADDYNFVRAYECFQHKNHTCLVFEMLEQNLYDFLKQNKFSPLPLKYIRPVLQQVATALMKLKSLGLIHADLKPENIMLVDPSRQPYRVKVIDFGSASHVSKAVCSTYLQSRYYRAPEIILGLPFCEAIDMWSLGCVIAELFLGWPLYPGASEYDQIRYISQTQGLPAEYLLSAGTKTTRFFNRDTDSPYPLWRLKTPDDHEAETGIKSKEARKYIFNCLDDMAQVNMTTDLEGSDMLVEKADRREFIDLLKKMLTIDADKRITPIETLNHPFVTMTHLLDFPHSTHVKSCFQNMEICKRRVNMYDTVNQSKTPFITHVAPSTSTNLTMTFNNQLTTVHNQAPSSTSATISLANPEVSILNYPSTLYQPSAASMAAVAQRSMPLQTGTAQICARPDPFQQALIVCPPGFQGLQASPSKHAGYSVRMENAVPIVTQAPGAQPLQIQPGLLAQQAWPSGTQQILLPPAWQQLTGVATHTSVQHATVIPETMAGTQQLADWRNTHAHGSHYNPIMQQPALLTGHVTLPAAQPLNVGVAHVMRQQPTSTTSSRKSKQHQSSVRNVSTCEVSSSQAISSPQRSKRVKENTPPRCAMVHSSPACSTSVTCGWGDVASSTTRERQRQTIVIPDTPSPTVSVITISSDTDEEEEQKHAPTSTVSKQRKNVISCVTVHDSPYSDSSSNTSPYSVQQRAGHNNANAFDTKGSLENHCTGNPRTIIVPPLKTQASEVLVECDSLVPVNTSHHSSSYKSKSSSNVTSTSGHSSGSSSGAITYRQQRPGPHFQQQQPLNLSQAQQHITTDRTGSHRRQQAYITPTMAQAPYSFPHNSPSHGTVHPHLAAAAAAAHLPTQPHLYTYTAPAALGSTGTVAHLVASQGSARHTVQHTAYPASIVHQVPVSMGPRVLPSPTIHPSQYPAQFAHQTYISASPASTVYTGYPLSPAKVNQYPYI
T5 sequence (P22607 23-806): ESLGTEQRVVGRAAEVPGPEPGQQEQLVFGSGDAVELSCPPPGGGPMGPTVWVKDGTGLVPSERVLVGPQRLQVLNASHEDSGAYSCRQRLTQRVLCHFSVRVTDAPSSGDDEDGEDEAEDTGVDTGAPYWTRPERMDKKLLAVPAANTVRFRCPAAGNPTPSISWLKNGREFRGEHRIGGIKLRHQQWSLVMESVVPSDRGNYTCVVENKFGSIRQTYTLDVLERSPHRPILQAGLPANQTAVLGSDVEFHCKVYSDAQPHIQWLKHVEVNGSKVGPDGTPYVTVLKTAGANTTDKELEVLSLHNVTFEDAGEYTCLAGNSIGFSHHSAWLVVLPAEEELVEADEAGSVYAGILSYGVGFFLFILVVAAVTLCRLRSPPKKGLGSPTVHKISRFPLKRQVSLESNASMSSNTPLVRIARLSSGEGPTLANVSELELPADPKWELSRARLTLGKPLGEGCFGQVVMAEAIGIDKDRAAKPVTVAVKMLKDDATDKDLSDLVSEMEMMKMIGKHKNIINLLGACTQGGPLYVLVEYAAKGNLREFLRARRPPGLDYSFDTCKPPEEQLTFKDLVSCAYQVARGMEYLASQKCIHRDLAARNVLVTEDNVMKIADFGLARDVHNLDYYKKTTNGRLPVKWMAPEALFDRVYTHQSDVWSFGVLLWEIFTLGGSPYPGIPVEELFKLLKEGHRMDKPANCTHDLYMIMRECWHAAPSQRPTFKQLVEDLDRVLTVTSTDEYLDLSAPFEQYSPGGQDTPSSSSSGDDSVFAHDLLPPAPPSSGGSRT
T9 sequence (Q00532 whole entry, the tested form may be a part): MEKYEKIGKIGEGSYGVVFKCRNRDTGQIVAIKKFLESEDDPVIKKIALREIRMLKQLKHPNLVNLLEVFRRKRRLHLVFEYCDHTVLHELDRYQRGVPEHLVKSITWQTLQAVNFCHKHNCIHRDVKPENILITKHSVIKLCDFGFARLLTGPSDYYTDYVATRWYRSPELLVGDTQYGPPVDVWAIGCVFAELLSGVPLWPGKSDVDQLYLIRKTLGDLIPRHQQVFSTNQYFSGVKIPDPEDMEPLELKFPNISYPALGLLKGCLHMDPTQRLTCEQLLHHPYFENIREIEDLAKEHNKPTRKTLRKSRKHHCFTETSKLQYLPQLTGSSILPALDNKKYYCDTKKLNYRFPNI

Consider `CCNc1nc(Nc2cc(F)c(C(=O)N3CCOCC3)cc2OC)ncc1C(F)(F)F` [GNE-7915], for which the dTm in experiment [1] was -0.22 K; in experiment [2], 3.65 K; in [3], 0.44 K; in experiment [4] it was -0.11 K; in experiment [5], 1.40 K; in [6], 0.60 K. The dTm was 0.58 K in [7]; -0.23 K in [8]; 0.08 K in experiment [9]; 0.0455 K in experiment [10]; 0.97 K in experiment [11]; -1.42 K in experiment [12]. The dTm in [13] is listed as 1.38 K; in [14], 0.82 K; in experiment [15] it was -0.31 K.

`Cc1ccc(C(=O)Nc2ccc(CN3CCN(C)CC3)c(C(F)(F)F)c2)cc1C#Cc1cnc2[nH]ncc2c1` [GZD-824, reference compound]: the dTm is given as 4.88 K in experiment [1]; 3.67 K in [2]; -0.44 K in experiment [3]; 2.45 K in experiment [4]; 14.11 K in experiment [5]; 4.08 K in experiment [6]. Also, the dTm in experiment [7] was 4.93 K; in [8] it was -0.24 K; in experiment [9] it was 4.34 K; in experiment [10], 0.63 K; in experiment [11], 7.78 K; in experiment [12], 1.02 K. In addition, the results for the dTm in experiment [13], in experiment [14] and in experiment [15] were 8.63 K, 1.22 K and -0.88 K, respectively.

Turning to `Cc1ccc(C(=O)Nc2ccc(CN3CCN(C)CC3)c(C(F)(F)F)c2)cc1C#Cc1c[nH]c2ncnc(N3CCOCC3)c12` [Compound 1], the dTm in experiment [1] is on record as 4.67 K; in experiment [2], 12.62 K; in experiment [3] it was 1.54 K; in [4] it was 1.15 K; in [5] it was 4.20 K; in [6] it was 2.18 K. The dTm is given as 5.51 K in [7]; -0.41 K in [8]; 3.12 K in [9]; 10.52 K in experiment [11]; 1.01 K in [12]; 10.65 K in experiment [13]. In addition, the dTm in experiment [14] is on record as 4.31 K; in experiment [15] it was -0.0373 K.

For `O=C(Nc1cc(F)cc(Br)c1)C1(C(=O)Nc2cccc(-c3c[nH]c4ncnc(N5CCOCC5)c34)c2)CC1` [Compound 27], the dTm in experiment [1] is reported as 3.41 K; in experiment [2] it was 4.77 K; in [3] it was 1.64 K; in experiment [4], 0.35 K; in experiment [5], 2.07 K; in experiment [6], 1.19 K. Further, the dTm in experiment [7] was determined as 4.80 K; in [8], 0.07 K; in [9] it was 0.61 K; in experiment [10], 2.13 K; in experiment [11] it was 2.54 K; in experiment [12], 2.17 K. Besides, the dTm in experiment [13] worked out at 3.64 K; in [14], 1.50 K; in experiment [15], 0.53 K.

`CNC(=O)c1cc(Oc2ccc(NC(=O)Nc3cc(C(C)(C)C)nn3-c3ccc4ncccc4c3)c(F)c2)ccn1` [Rebastinib, reference compound]: the dTm turned out to be 2.63 K in experiment [1]; 1.83 K in experiment [2]; 0.65 K in experiment [3]; 10.52 K in [4]; 1.99 K in experiment [6]; 9.78 K in experiment [7]. Moreover, the dTm in experiment [8] was found to be 0.44 K; in experiment [9], 5.33 K; in experiment [10], 0.92 K; in experiment [11], 9.02 K; in experiment [12] it was 1.16 K; in [13], 8.93 K. Further, the dTm in experiment [15] is -0.41 K.

Consider `O=C(Nc1cccc(-c2c[nH]c3ncnc(N4CCOCC4)c23)c1)C1(C(=O)Nc2cc(Br)c(F)cc2F)CC1` [Compound 25], for which the dTm is recorded as 3.02 K in [1]; 6.39 K in [2]; 2.04 K in [3]; -0.23 K in experiment [4]; 2.90 K in experiment [5]; 0.77 K in experiment [6]. Moreover, the dTm is on record as 4.88 K in experiment [7]; 0.00186 K in experiment [8]; 1.69 K in experiment [9]; 2.16 K in [10]; 4.96 K in [11]; -2.86 K in [12]. For the same molecule, the figures for the dTm in [13], in experiment [14] and in experiment [15] were 6.31 K, 1.71 K and -0.48 K, respectively.

On to `Cc1ccc(C(=O)Nc2ccc(CN3CCN(C)CC3)c(C(F)(F)F)c2)cc1C#Cc1cnc2cccnn12` [Ponatinib, reference compound], for which the dTm in [2] came out at 1.61 K; in [4] it was 1.53 K; in experiment [5], 14.03 K; in experiment [12] it was 0.49 K.

With `CCSc1nc(NC)c2c(-c3cccc(NC(=O)Nc4cc(C(C)(C)C)nn4-c4ccc(C)cc4)c3)c[nH]c2n1` [Compound 32], the dTm came out at 0.27 K in experiment [1]; 0.53 K in experiment [2]; 1.50 K in experiment [3]; 0.61 K in experiment [4]; 4.04 K in experiment [6]; 11.55 K in [7]. Also, the dTm in experiment [8] was 0.11 K; in [9], 9.64 K; in experiment [10], 0.11 K; in experiment [11], 0.53 K; in experiment [12], 0.28 K; in experiment [13] it was 2.43 K. For the same molecule, the dTm in experiment [14] amounted to 0.31 K; in experiment [15] it was 0.30 K.

Consider `Cc1ccc(-n2nc(C(C)(C)C)cc2NC(=O)Nc2cccc(-c3c[nH]c4ncnc(N5CCOCC5)c34)c2)cc1` [Compound 29], for which the dTm is given as 4.70 K in [1]; 4.13 K in [2]; 3.53 K in experiment [3]; 5.51 K in experiment [4]; 4.13 K in experiment [6]; -1.39 K in [7]. The dTm in [8] was -0.55 K; in [9], 10.84 K; in experiment [10] it was 2.87 K; in experiment [11], 10.79 K; in experiment [12], 3.15 K; in experiment [14] it was 9.24 K. In [15], this molecule gave a dTm of 0.14 K.
